We go through 6 compounds from ChEMBL document CHEMBL4732193, “Design, synthesis, and anti-tumor activities of novel Brevinin-1BYa peptidomimetics” (Bioorg Med Chem Lett, 2021).

A short description of data set [1]: Stability of the compound in aqueous DTT solution assessed as degradation half life measured for 48 hrs. The format is physicochemical.
Data set [2] can be described thus: Stability of the compound in aqueous DTT solution measured after 48 hrs. The note with it: buffer. The data set is classed as physicochemical.
Data set [3] concerns alpha chymotrypsin. Kind of data set: Stability of the compound assessed as alpha chymotrypsin (unknown origin)-mediated proteolysis by measuring degradation half life measured for 24 hrs. The data set is classed as ADME, Homo sapiens.
A short description of data set [4]: Hemolytic activity in rabbit erythrocytes assessed as hemoglobin release. The data set is classed as ADME, cell-based, Oryctolagus cuniculus, Erythrocyte.
Data set [5] concerns LNCaP C4-2B. In words: Anticancer activity against human LNCaP C4-2B cells assessed as cell growth inhibition by CCK8 assay. The data set is classed as functional, cell-based. (In general: Tetrazolium assays rely on reduction of a dye to a coloured formazan, in cell work by metabolically active cells.)
The subject of data set [6] is A549. In words: Anticancer activity against human A549 cells assessed as cell growth inhibition by CCK8 assay. The data set is classed as functional, cell-based.
The subject of data set [7] is Huh-7. Kind of data set: Anticancer activity against human Huh-7 cells assessed as cell growth inhibition by CCK8 assay. The format is functional, cell-based.
Data set [8] can be described thus: Ratio of test compound t1/2 to Brevinin-1BYa t1/2 for alpha chymotrypsin (unknown origin)-mediated proteolysis measured for 24 hrs. The format is ADME. The note with it: human.
A short description of data set [9]: Helicity of the compound in TFE aqueous solution by CD spectroscopy. The format is physicochemical. The note with it: buffer.
The nature of data set [10]: Helicity of the compound in TFE aqueous solution by CD spectroscopy relative to Brevinin-1BYa. The data set is classed as physicochemical. The note with it: buffer.
Data set [11] has as its system LNCaP C4-2B. In words: Potency index, ratio of Brevinin-1BYa IC50 to test compound IC50 for human LNCaP C4-2B cells by CCK8 assay. The data set is classed as functional.
Data set [12] has as its system Huh-7. In words: Potency index, ratio of Brevinin-1BYa IC50 to test compound IC50 for human Huh-7 cells by CCK8 assay. The format is functional.

Broadly, the half-life is the time in which the quantity being followed falls by half. What is called HC50 is the concentration giving 50% haemolysis. As usually defined, the IC50 is the concentration that gives 50% inhibition.

Starred links: 1 amine or outer side, 2 acyl side, 3 side chain; linkers in the order of their positions; H or OH if unused. Positions of bridges follow the written chain, without caps; N, C: chain ends. Non-standard residues stand in square brackets, D forms with d. Residues, ends and D or L forms follow the SMILES beside them. Triazole bridges read from a SMILES are 1,4-linked. *: point of attachment. βGlcNAc = CC(=O)N[C@@H]1[C@@H](O)[C@H](O)[C@@H](CO)O[C@H]1*; Abu(4-yl) = O=C([C@H](CC[*:3])N[*:1])[*:2]; Dap(N3) = [N-]=[N+]=NC[C@H](N)C(=O)O; Pra = C#CC[C@H](N)C(=O)O; Dap = NC[C@H](N)C(=O)O

Take `CC[C@H](C)[C@H](NC(=O)[C@H](CC(C)C)NC(=O)[C@H](C)NC(=O)[C@H](CO)NC(=O)[C@H](CC(C)C)NC(=O)[C@H](C)NC(=O)[C@H](C)NC(=O)[C@H](CCCCN)NC(=O)[C@H](Cc1ccccc1)NC(=O)CNC(=O)[C@@H]1CCCN1C(=O)[C@H](CCCCN)NC(=O)[C@H](CC(C)C)NC(=O)[C@H](Cc1ccccc1)NC(=O)[C@@H]1CSSC[C@H](N)C(=O)N[C@@H](CCCCN)C(=O)N[C@@H](CCCCN)C(=O)N[C@@H]([C@@H](C)O[C@@H]2O[C@H](CO)[C@@H](O)[C@H](O)[C@H]2NC(C)=O)C(=O)N[C@@H](C(C)C)C(=O)N[C@@H](CC(C)C)C(=O)N1)C(=O)N1CCC[C@H]1C(=O)N[C@@H](CC(C)C)C(=O)N[C@@H](Cc1ccccc1)C(=O)O` (H-CKKT(βGlcNAc)VLCFLKPGFKAALSALIPLF-OH; disulfide 1-7): the half-life in [1] was 3.32 h; in [3] it was 4.33 h. The Stabilty entry in data set [2] is reported as “Unstable”. Also, the HC50 in data set [4] is > 100 µM. Further, the IC50 in data set [5] came to 20.5 µM; in data set [6], 20.9 µM; in data set [7], 23.4 µM. Besides, the Ratio in data set [8] is 1.67.

Consider `CC[C@H](C)[C@H](NC(=O)[C@H](CC(C)C)NC(=O)[C@H](C)NC(=O)[C@H](CO[C@@H]1O[C@H](CO)[C@@H](O)[C@H](O)[C@H]1NC(C)=O)NC(=O)[C@H](CC(C)C)NC(=O)[C@H](C)NC(=O)[C@H](C)NC(=O)[C@H](CCCCN)NC(=O)[C@H](Cc1ccccc1)NC(=O)CNC(=O)[C@@H]1CCCN1C(=O)[C@H](CCCCN)NC(=O)[C@H](CC(C)C)NC(=O)[C@H](Cc1ccccc1)NC(=O)[C@@H]1CSSC[C@H](N)C(=O)N[C@@H](CCCCN)C(=O)N[C@@H](CCCCN)C(=O)N[C@@H]([C@@H](C)O)C(=O)N[C@@H](C(C)C)C(=O)N[C@@H](CC(C)C)C(=O)N1)C(=O)N1CCC[C@H]1C(=O)N[C@@H](CC(C)C)C(=O)N[C@@H](Cc1ccccc1)C(=O)O` (H-CKKTVLCFLKPGFKAALS(βGlcNAc)ALIPLF-OH; disulfide 1-7), for which the half-life in data set [1] is 3.31 h; in [3] it was 4.32 h. The Stabilty entry in data set [2] is “Unstable”. Further, the 50% haemolytic concentration (HC50) in data set [4] was > 100 µM. Besides, the IC50 came out at 18.7 µM in [5], 32.6 µM in data set [6] and 39.6 µM in data set [7]. Besides, the Ratio in data set [8] came out at 1.66.

For `CC[C@H](C)[C@H](NC(=O)[C@H](CC(C)C)NC(=O)[C@H](C)NC(=O)[C@H](CO)NC(=O)[C@H](CC(C)C)NC(=O)[C@H](C)NC(=O)[C@H](C)NC(=O)[C@H](CCCCN)NC(=O)[C@H](Cc1ccccc1)NC(=O)CNC(=O)[C@@H]1CCCN1C(=O)[C@H](CCCCN)NC(=O)[C@H](CC(C)C)NC(=O)[C@H](Cc1ccccc1)NC(=O)[C@@H]1CSSC[C@H](N)C(=O)N[C@@H](CCCCN)C(=O)N[C@@H](CCCCN)C(=O)N[C@@H]([C@@H](C)O)C(=O)N[C@@H](C(C)C)C(=O)N[C@@H](CC(C)C)C(=O)N1)C(=O)N1CCC[C@H]1C(=O)N[C@@H](CC(C)C)C(=O)N[C@@H](Cc1ccccc1)C(=O)O` (H-CKKTVLCFLKPGFKAALSALIPLF-OH; disulfide 1-7), the half-life in [1] is 3.35 h; in [3], 1.62 h. For the same compound, the Stabilty result in data set [2] is given as “Unstable”. In addition, the Activity in [9] turned out to be 22.57%. Moreover, the HC50 in data set [4] came out at 94.4 µM. Besides, the concentration for half-maximal inhibition (IC50) in data set [5] came to 14 µM; in [6], 9.24 µM; in data set [7], 14.9 µM.

Take `CC[C@H](C)[C@H](NC(=O)[C@H](CC(C)C)NC(=O)[C@H](C)NC(=O)[C@H](CO)NC(=O)[C@H](CC(C)C)NC(=O)[C@H](C)NC(=O)[C@H](C)NC(=O)[C@H](CCCCN)NC(=O)[C@H](Cc1ccccc1)NC(=O)CNC(=O)[C@@H]1CCCN1C(=O)[C@H](CCCCN)NC(=O)[C@H](CC(C)C)NC(=O)[C@H](Cc1ccccc1)NC(=O)[C@@H]1CCSC[C@H](N)C(=O)N[C@@H](CCCCN)C(=O)N[C@@H](CCCCN)C(=O)N[C@@H]([C@@H](C)O)C(=O)N[C@@H](C(C)C)C(=O)N[C@@H](CC(C)C)C(=O)N1)C(=O)N1CCC[C@H]1C(=O)N[C@@H](CC(C)C)C(=O)N[C@@H](Cc1ccccc1)C(=O)O` (H-CKKTVL[Abu(4-yl)]FLKPGFKAALSALIPLF-OH; thioether 1-7): the half-life in data set [1] is > 12 h; in data set [3], 2.51 h. Also, the Stabilty result in data set [2] is given as “Stable”. The compound also came in with an Activity in [9] of 83.65%. For the same compound, the HC50 in data set [4] worked out at 70.4 µM. Further, the IC50 in data set [5] came to 9.23 µM; in data set [6], 11.2 µM; in [7] it was 10.8 µM. In data set [10], the “fold change (FC)” value came to 2.7. Further, the “Ratio IC50” value in data set [11] came to 1.5; in [12] it was 1.38.

For the compound `CC[C@H](C)[C@H](NC(=O)[C@H](CC(C)C)NC(=O)[C@H](C)NC(=O)[C@H](CO)NC(=O)[C@H](CC(C)C)NC(=O)[C@H](C)NC(=O)[C@H](C)NC(=O)[C@H](CCCCN)NC(=O)[C@H](Cc1ccccc1)NC(=O)CNC(=O)[C@@H]1CCCN1C(=O)[C@H](CCCCN)NC(=O)[C@H](CC(C)C)NC(=O)[C@H](Cc1ccccc1)NC(=O)[C@@H]1CNC(=O)C[C@H](N)C(=O)N[C@@H](CCCCN)C(=O)N[C@@H](CCCCN)C(=O)N[C@@H]([C@@H](C)O)C(=O)N[C@@H](C(C)C)C(=O)N[C@@H](CC(C)C)C(=O)N1)C(=O)N1CCC[C@H]1C(=O)N[C@@H](CC(C)C)C(=O)N[C@@H](Cc1ccccc1)C(=O)O` (H-DKKTVL[Dap]FLKPGFKAALSALIPLF-OH; lactam 1-7), the half-life in data set [1] is > 12 h; in data set [3], 1.81 h. The Stabilty entry in [2] is recorded as “Stable”. The compound further displayed an Activity in data set [9] of 26.34%. In addition, the HC50 in data set [4] was > 100 µM. For the same compound, the values for the IC50 in data set [5], in data set [6] and in data set [7] were 16.8 µM, 17.1 µM and 16.6 µM, respectively.

For the compound `CC[C@H](C)[C@H](NC(=O)[C@H](CC(C)C)NC(=O)[C@H](C)NC(=O)[C@H](CO)NC(=O)[C@H](CC(C)C)NC(=O)[C@H](C)NC(=O)[C@H](C)NC(=O)[C@H](CCCCN)NC(=O)[C@H](Cc1ccccc1)NC(=O)CNC(=O)[C@@H]1CCCN1C(=O)[C@H](CCCCN)NC(=O)[C@H](CC(C)C)NC(=O)[C@H](Cc1ccccc1)NC(=O)[C@@H]1Cn2cc(nn2)C[C@H](N)C(=O)N[C@@H](CCCCN)C(=O)N[C@@H](CCCCN)C(=O)N[C@@H]([C@@H](C)O)C(=O)N[C@@H](C(C)C)C(=O)N[C@@H](CC(C)C)C(=O)N1)C(=O)N1CCC[C@H]1C(=O)N[C@@H](CC(C)C)C(=O)N[C@@H](Cc1ccccc1)C(=O)O` (H-[Pra]KKTVL[Dap(N3)]FLKPGFKAALSALIPLF-OH; triazole 1-7), the half-life in data set [1] was > 12 h; in data set [3], 2.93 h. Also, the Stabilty entry in [2] was “Stable”. In data set [4], the 50% haemolytic concentration (HC50) was 70.4 µM. The IC50 stood at 12.6 µM in [5], 21.7 µM in data set [6] and 11.3 µM in data set [7].
